Data set [1] concerns rats. In words: Contextual fear conditioning task (scopolamine induced memory deficit). Format: in vivo, rat. The note with it: scopolamine 0.3 mg/kg, s.c.; FIG. 3. As to the method: Contextual Fear Conditioning Task
Experiment was carried out over a period of two days. On day 1, rats were placed in the operant behavior chamber and allowed to acclimatize for 2 minutes. Rats received an unavoidable foot shock (unconditioned stimulus (US): electric shock of 0.5-0.7 mA for 3 sec). Following a 1 minute interval, shocks were repeated to deliver a total of three US. Rats were administered with vehicle or test compound post training. Scopolamine (0.3 mg/kg, s.c.) was administered 120 minutes after training.
On day 2, rats were placed in the operant behavior chamber and total freezing time was scored for a period of 5 minutes.

The nature of data set [2]: Rodent brain penetration study. The format is in vivo. As to conditions: rat, oral, 3 mg/kg, p.o., male Wistar rats, read-out: Single dose Rat Brain Penetration (Cb/Cp). The method, then: Rodent Brain Penetration Study
Male Wistar rats (260±40 grams) were used as experimental animals. Three animals were housed in each cage. Animals were given water and food ad libitum throughout the experiment and maintained on a 12 hours light/dark cycle.
Brain penetration was determined in discrete manner in rats. One day prior to dosing day, male Wistar rats were acclimatized and randomly grouped according to their weight. At each time point (0.50, 1 and 2 hours) n=3 animals were used.
The test compounds were suitably preformulated and administered orally at (free base equivalent) 3 mg/kg. Blood samples were removed via cardiac puncture by using isoflurane anesthesia. The animals were sacrificed to collect brain tissue. Plasma was separated and brain samples were homogenized and stored frozen at −20° C. until analysis. The concentrations of the test compounds in plasma and brain were determined using LC-MS/MS method.
The test compounds were quantified in plasma and brain homogenate by qualified LC-MS/MS method using suitable extraction technique. The test compounds were quantified in the calibration range of 1-500 ng/mL in plasma and brain homogenate. Study samples were analyzed using calibration samples in the batch and quality control samples spread across the batch. Extent of brain-plasma ratio was calculated (Cb/Cp).

The subject of data set [3] is soluble amyloid precursor protein α (sAPPα). Kind of data set: Cortical sAPPα levels in rat brain (ELISA). As to conditions: male Wistar rats, 10 mg/kg, i.p., sixty minutes post treatment; FIG. 5. The format is in vivo. The method, then: Modulation of Soluble Amyloid Precursor Protein α (sAPPα) Levels in Cortex
Estimation of Cortical sAPPα Levels in Rat Brain
Male Wistar rats (250±40 grams) were randomly divided (n=8 group) into different treatment groups. Control group of rats were intraperitoneally (i.p.) administered with vehicle (99.75% of 0.25% HEC HHX+0.25% tween 80). Rats from treatment groups received a single intraperitoneal injection of test compound (dose volume of 2 mL/kg). Rats were sacrificed by cervical dislocation at 60 minutes after administration of test compound. Brains were quickly isolated and the cortex was dissected at −20° C. The cortex was immediately kept on a dry ice and weighed before being stored at −80° C. until quantification of sAPPα using Enzyme-linked immunosorbent assay (ELISA).
• 1. […]
To investigate the role of an acute treatment of test compound on sAPPα levels, the expression of this protein was measured in homogenates obtained from the cortex of treated and untreated rats by employing ELISA assay. […]
Statistical analyses were performed using the Graph Pad Prism (Version 4). Results are expressed as Mean±SEM levels of sAPPα expressed as percentage of control values (rats treated with vehicle). Statistical significance after treatment was assessed using One-Way ANOVA followed by Dunnett's post test and the significance level was set below p value less than 0.05.

In data set [4] the test system is rats. In words: Modulation of cerebral blood flow in frontal cortex (Laser Doppler). The format is in vivo, rat. As to conditions: intravenous, anaesthetized rats; FIG. 6. As to the method:
Modulation of Cerebral Blood Flow in Frontal Cortex:
The effect of test compound on modulation of cerebral blood flow was evaluated using rats.
Rats were acclimatized to the laboratory environment for at least 7 days. Rats (300-350 grams) were housed in a group of four in a controlled environment (Temp=21±3° C.; Humidity=30-70%) and maintained on a 12-hour light/dark cycle with lights on at 07:00 AM. Food and water was provided ad libitum.
Rats were anaesthetized with 12% urethane (i.p.). Animal's body core temperature was maintained at 37° C. via a heating pad and rectal temperature probe. A small incision was made at one of the ventral side of the hind limb and the femoral vein was cannulated with PE10 tubing for drug application. Then animal was placed into a stereotaxic frame and a midline incision was made to expose the skull. A burr hole was drilled over the frontal cortex (stereotaxic coordinates 1 mm anterior and 4 mm lateral to bregma). Oxygen was supplied through the nose cone of the seterotaxic apparatus which was connected to the controlled gaseous supplier with a flow of 200 mL/minute. Laser Doppler probe (AD Instruments Inc) was placed over the hole to monitor cerebral blood flow. […] Data obtained was calculated as percent increase relative to resting basal blood flow level. […]

`O=C(N[C@H]1CCCC[C@@H]1O)C1=CN(Cc2cccc(F)c2F)c2ccccc2O1` [Example 18, N-(cis-1S, 2S-2-Hydroxycyclohexyl)-4-(2,3-difluorobenzyl)-4H-benzo[1,4]oxazine-2-carboxamide]: in data set [1], the “Effect on scopolamine induced memory deficit (freezing time)” value was “reversed the scopolamine induced memory deficit”. The Kp in data set [2] was found to be 2.27 ± 0.64. In addition, the “mean maximum increase in cortical sAPPα levels” value in data set [3] turned out to be 26%. For the same molecule, in data set [4], the “cerebral blood flow in the frontal cortex” value was “significantly increased”.
